Consider one molecule from paper PMC9804781, “Identification of a Novel Pseudo‐Natural Product Type IV IDO1 Inhibitor Chemotype” (Angewandte Chemie (International Ed. in English), 2022).

Series [1] has as its system L-Trp uptake in BxPC-3 cells. Kind of series: Trp uptake assay in BxPC-3 cells (HPLC-MS/MS). It is filed as cell-based. To be noted: BxPC-3 starved for L-Trp 72 h, ±IFN-γ; 5 mM L-Leu, 1 mM 1-MT, 5 µM compound. The method, then: GraphPad Prism 9.0 (GraphPad Software, Inc, US) to generate dose-response curves and obtain […]
IDO1 promoter reporter gene assay
HEK293T cells (25,000 cells/well) were reverse-transfected with pXPG-IDO1[16] (4 µg/96-well plate, kindly provided by Gina M. Doody, Leeds, UK) and pRL-TK (300 ng/96-well plate, Promega, US) using Lipofectamine™ 2000 (Invitrogen, USA) pri or to incubation for 24 h. Afterwards, cells were treated with 50 ng/mL IFN-γ and the compounds for 48 h. Luminescence generated by the Fluc reporter and the control reporter Rluc was measured using the Dual-Glo ® Luciferase Assay System (Promega, US) on the Spark® Multimode Microplate Reader (Tecan, AT). To determine the IDO1 promoter activity, Fluc signals were divided by Rluc signals and normalized to the values of the DMSO control. Data analysis was performed using a non-linear regression curve fit and […]
BxPC-3 cells (30,000 cells/well) were seeded in 96-well plates in Trp-free RPMI 1640 medium and incubated for 48 h prior addition of 50 ng/mL IFN-γ. Trp starvation was continued for another 24 h. Afterwards, medium was exchanged for Trp-free medium containing the control inhibitors 5 mM L-Leu (inhibitor of system-L amino acid transporters (LAT)), 1 mM 1-methyl-L-tryptophan (inhibitor of tryptophanyl-tRNA synthetase (TrpRS)) and compounds and cells were incubated for 30 min. Subsequently, 50 µM L-Trp was added and samples were incubated for another 30 min.
The supernatant was transferred to a new plate, trichloroacetic acid was added to a final concentration of 7% (v/v) and plates were incubated for 15 min at room temperature. Samples were centrifuged for 10 min at 1800 x g and L-Trp was quantified by HPLC-MS/MS using the LTQ Velos Pro and Dionex HPLC (Thermo Fisher Scientific, US). Data analysis was performed with Xcalibur™ (Thermo Fisher Scientific, US) and repres ented using GraphPad Prism 9.0 (GraphPad […]
RNA purification and RT-qPCR
HeLa cells (250,000 cells/well) were seeded in 6-well plates and incubated for 24 h prior addition of 50 ng/mL IFN-γ and compounds. […]

Series [2] can be described thus: Ligand integrity in the crystallization drop (HPLC-ESI-MS). The settings on record: 63 days after the crystallization setup. Type of series: physicochemical. The method, then: for 10 min. Protein crystals were obtained from a sitting drop setup (iQ plates, SPT Labtech, UK) by addition of 100 nL of the reservoir solution (40% (v/v) PEG200 in 100 mM MES, pH 6.5) to 100 nL of protein solution and incubation at 20°C. Crystals were harvested after 7 days by addition of reservoir solution as cryoprotectant to the drop prior to plunging of the crystals in liquid nitrogen. […]
The integrity of apoxidole-1 in the protein solution was assessed 63 days after the crystallization setup by mixing the crystallization drop with 100 µL of DCM and recording of HPLC-ESI-MS spectra using the LTQ Fleet (Thermo Fisher Scientific, US), Ultimate 3000 HPLC (Thermo Fisher Scientific, US) and Xcalibur™ software (Thermo Fish er Scientific, US). […]
(v/v) component 2 in component 1) and 50 µM Test Inhibitor (0.5% (v/v) DMSO) for 90 min at 30°C with slow shaking in the dark prior to initiation of the reaction by addition of 20% (v/v) IDO2 Substrate. Samples were incubated for 120 min at 30°C with slow shaking in the dark. […]

Turning to `CCOC(=O)C1=CC[C@](C(=O)OC)(c2cc3ccccc3n2C)N(S(=O)(=O)c2ccc(C)cc2)[C@@H]1C(=O)OC(C)(C)C` [Compound 3d], in series [1], the “uptake (import) of L-Trp” value is “does not interfere”. In addition, the “ligand integrity after crystallization setup” value in series [2] was “still intact”.
